Source: ChEMBL document CHEMBL3507680, “University of Dundee, Gates Library screen for HepG2 cell viability”
Several values for one entry are separate records, joined by “and”; a condition that tells them apart may be missing. Equal entries are not always repeated.

Experiments:
[1] = Human HepG2 cell viability assay in 384 well format; type: toxicity, cell-based; parameters: dose 125 nL, time 70.5 hour; concentration not given beside the values; conditions: HepG2 cells, read-out: Inhibition
[2] = Human HepG2 cell viability dose-response assay; type: toxicity, cell-based

SMILES | cytotoxicity at 70.5 h [1] [%] | BOTTOM [2] | HILLSLOPE [2] | TOP [2] | pXC50 [2]
CC(C)(C)c1nccc(C2(c3ccccc3Cl)CCNCC2)n1 | 78.4 | 9.625 and 4.047 | 4.667 and 5.549 | 104.8 and 103.4 | 5.031 and 5.028
CCCc1cc(=O)[nH]c(-n2nc(C3CC3)cc2N)n1 | 65.9 | 0 | 0 | 0 | < 4.53
N#Cc1ccc(NCCNc2ccc(C(F)(F)F)cn2)nc1 | 101 | -5.895 and -10.21 | 4.246 and 4.413 | 101.3 and 101.1 | 5.913 and 5.918
C/N=C1/c2cc3cc(OC)ccc3n2CCN1Cc1ccccc1.Cl | 61.3 | -4.849 and -8.854 | 2.411 and 1.684 | 87.09 and 100 | 5.148 and 5.086
Cc1cnc(Nc2cccc(C3CCCN3Cc3cn(C)nc3C)n2)s1 (centres undefined) | 76 | -7.108 and -9.894 | 1.821 and 1.15 | 87.64 and 100 | 5.777 and 5.662
Cc1ccccc1CN1CCCC1c1cccc(Nc2nccs2)n1 (centres undefined) | 70.5 | -34.71 and -42.55 | 0.815 and 0.7597 | 100 | 6.34 and 6.398
Oc1cc(C2CCCCN2Cc2cccs2)nc(-c2ccccn2)n1 (centres undefined) | 64.3 | -3.23 and -7.213 | 1.278 and 1.267 | 100 | 5.076 and 5.09
Cl.Cl.Clc1cccc(C[C@@H]2NCCC[C@@H]2Nc2ccccc2)c1 | 104 | -6.539 and -3.827 | 13.96 and 17.86 | 101.8 | 5.306 and 5.329
O=C(O)C(F)(F)F.O=C1COC2(CCN(CC3CCC3)CC2)CN1c1cncnc1 | 61.5 | 0 | 0 | 0 | < 4.53
CNc1cc(C2CN(Cc3scnc3C)CCO2)nc(C)n1 (centres undefined) | 98.7 | – | 1.929 and 1.812 | 107.3 and 109.8 | 4.988 and 5.003
CC(C)Cc1ccc(S(=O)(=O)Nc2ccc(=O)n(C)c2)cc1 | 71.6 | 0 | 0 | 0 | < 4.53
c1ccc(CCN2CCCC2c2cccc(Nc3nccs3)n2)cc1 (centres undefined) | 70.3 | -11.18 and -9.985 | 1.416 and 1.359 | 100 | 5.661 and 5.625
CCc1ncc2c(n1)CN(Cc1ncc(C(C)(C)C)o1)CC2 | 60.9 | 0 | 0 | 0 | < 4.53
c1ccc(OCC2CC3(CCN(CC4CCOCC4)CC3)CO2)nc1 (centres undefined) | 62.9 | 0 | 0 | 0 | < 4.53
O=C(Nc1nccs1)c1csc(NC2CCCC2)n1 | 62 | -10.16 and -7.056 | 0.9548 and 1.411 | 100 | 4.822 and 4.869
CN(CCC(F)(F)F)C(=O)C1CSCN1C(=O)C(C)(C)C (centres undefined) | 100 | 0 | 0 | 0 | < 4.53
NC(CC1CCCC1)c1ccc(Oc2ccccc2)cc1 (centres undefined) | 99 | -5.453 and -5.719 | 5.268 and 5.002 | 102.6 and 103.1 | 5.226 and 5.224
COc1ccc(C)cc1CN1CCC(c2cc3ncccc3cn2)CC1.Cl | 105 | -3.004 and -4.306 | 10.96 and 6.205 | 101.8 and 102.1 | 5.072 and 5.187
